Measurements as given in publication PMC8465942, “Cyano- and Ketone-Containing Selenoesters as Multi-Target Compounds against Resistant Cancers” (Cancers, 2021).
Like-named read-outs stand apart in the source and are kept apart here. Marks after values point to notes of the source that are not given here.

Assays:
[1] = tested on: Colo 205 human colonic adenocarcinoma cell line; assay: Cytotoxicity (MTT) on sensitive Colo 205 cells; type: cell-based; conditions: for IC50: Homo sapiens, COLO 205, 24 h, MTT, read-out: Colo 205 (IC50 µM) Mean; for SI MRC-5/Colo 205: ratio IC50 non-tumour cells / IC50 cancer cells
From the text: (§1) Three cell lines have been used in this study: the doxorubicin-sensitive Colo 205 (CCL-222, ATCC, Manassas, VA, USA) human colonic adenocarcinoma cell line; the multidrug resistant Colo 320/MDR-LRP expressing P-gp (MDR1)-LRP (CCL-220.1, ATCC) human colonic adenocarcinoma cell line; and the MRC-5 human embryonal lung fibroblast cell line (CCL-171, ATCC). The colon adenocarcinoma cell lines were purchased from LGC Promochem (Teddington, UK), and the MRC-5 cell line was purchased from Sigma-Aldrich (Merck KGaA, Darmstadt, Germany). Their culture conditions are as follows: Colo 205 (CCL-222, ATCC) and Colo 320/MDR-LRP expressing P-gp (MDR1)-LRP (CCL-220.1, ATCC) human colon adenocarcinoma cell lines were cultured in RPMI 1640 medium, supplemented with 10% FBS, 2 mM L-glutamine, 1 mM Na-pyruvate, and […]. The cell lines were incubated at 37 °C, 5% CO2, and 95% air atmosphere. The semi-adherent human colon cancer cells were detached with a Trypsin-Versene (EDTA) solution for 5 min at 37 °C. MRC-5 human embryonal lung fibroblast cells were cultured in EMEM containing 4.5 g/L of glucose and supplemented with a non-essential amino acid mixture, a selection of vitamins, and 10% FBS. The cell lines were incubated at 37 °C, 5% CO2, and 95% air atmosphere.
(§2) The effects of increasing concentrations of the compounds on cell growth were tested in 96-well flat-bottomed microtiter plates. Moreover, 10^4 of human colonic adenocarcinoma cells in 100 μL of the medium (RPMI-1640) were added to each well, except for the medium control wells. The adherent human embryonic lung fibroblast cell line was seeded in the EMEM medium for 4 h before the assay. The two-fold serial dilutions of the compounds were made in a separate plate (0.19–100 μM), and then transferred to the plates containing the adherent corresponding cell line. Culture plates were incubated at 37 °C for 24 h. At the end of the incubation period, 20 μL of MTT (thiazolyl blue tetrazolium bromide) solution (from a 5 mg/mL stock solution) were added to each well. After incubation at 37 °C for 4 h, 100 μL of sodium dodecyl sulfate (SDS) solution (10% SDS in 0.01 M HCl) was added to each well, and the plates were further incubated at 37 °C overnight. Cell growth was determined by measuring the optical density (OD) at 540 nm (ref. 630 nm) with a Multiscan EX ELISA reader (Thermo Labsystems, Cheshire, WA, USA). Inhibition of cell growth was expressed as IC50 values, defined as the inhibitory dose that reduces the growth of the cells exposed to the tested compounds by 50%. IC50 values and the SD of triplicate experiments were calculated by using GraphPad Prism software version 5.00 for Windows, with a non-linear regression curve fit (GraphPad Software, San Diego, CA, USA; www.graphpad.com, accessed on 12 July 2021). Doxorubicin (from a 2 mg/mL stock solution, Teva Pharmaceuticals) was used as a positive control.
(§3) The selectivity indexes (SI) were calculated as the ratio of the IC50 value in the non-tumour cells and the IC50 in the cancer cell lines. The compound’s activity towards cancer cells is considered as strongly selective if the selectivity index (SI) value is higher than 6, moderately selective if 3 < SI < 6, slightly selective if 1 < SI < 3, and non-selective if SI is lower than 1 [16].

[2] = tested on: Colo 320/MDR-LRP human colonic adenocarcinoma cell line; assay: Cytotoxicity (MTT) on resistant Colo 320 cells; type: cell-based; conditions: for IC50: Homo sapiens, COLO 320, 24 h, MTT, read-out: Colo 320 (IC50 µM) Mean; for SI MRC-5/Colo 320: ratio IC50 non-tumour cells / IC50 cancer cells
From the text: as §1, §2, §3

[3] = Cytotoxicity (MTT) on normal MRC-5 fibroblasts; type: cell-based; conditions: human
From the text: as §1, §2

[4] = tested on: MDR Colo 320 adenocarcinoma cells; assay: Apoptosis induction (Annexin V-FITC / propidium iodide); type: cell-based, human; conditions: 20 µM
Experimental: The assay was carried out using an Annexin V-FITC Apoptosis Detection Kit Cat. No. PF 032 from Calbiochem (EMD Biosciences. Inc. La Jolla. CA), according to the manufacturer's instructions. […] The cell suspension was distributed into 1 mL aliquots (1 × 10^6 cells) into a 24-well microplate and incubated overnight at 37 °C, with 5% CO2. On the following day, the medium was removed and a fresh medium was added to the cells. The cells were incubated in the presence of Se-compounds for 3 h at 37 °C. […] After a 3 h induction period, the culture medium was removed, the cells were washed with PBS, and a fresh medium was added to the cells. The 24-well plates were incubated overnight at 37 °C, with 5% CO2. After the incubation, the supernatant was collected in a microfuge tube and 200 μL of 0.25 trypsin (Trypsin-Versene) was added to the wells until the cells detached from the surfaces of the wells. The cells were centrifuged at 2000× g for 2 min at room temperature, the supernatant was removed, and the cells were re-suspended in fresh serum-free medium. After this procedure, apoptosis assay was carried out according to the rapid protocol of the kit using Annexin V-FITC and propidium iodide staining. […] The data were analysed by FlowJo^TM software (BD Biosciences, San Jose, NJ, USA).

[5] = tested on: HepG2 (hepatocellular carcinoma); assay: Cytotoxicity on HepG2 cells; type: cell-based; conditions: Homo sapiens
Experimental: (§4) The activity of selenoesters was tested on several cancer cell lines, including HepG2 (hepatocellular carcinoma, CCL-23TM, ATCC); HeLa (cervical adenocarcinoma, CCL-2TM, ATCC); B16 (skin melanoma, CCL-6322TM, ATCC); and a non-cancerous cell line, HDF (human dermal fibroblasts, Sigma-Aldrich). HepG2, HeLa, B16, and HDF cell lines were cultivated in EMEM medium supplemented with 10% FBS, 2 mM L-glutamine, and 1% penicillin-streptomycin mixture. The HaCaT cell line was cultivated in DMEM medium supplemented with 10% FBS and 1% penicillin-streptomycin mixture. All of the cells were cultivated in a CO2 incubator (5% CO2, 37 °C). Twice per week, the cell lines were passaged according to a standardized protocol with a trypsin-EDTA solution.
as §3

[6] = tested on: HeLa (cervical adenocarcinoma); assay: Cytotoxicity on HeLa cells; type: cell-based; conditions: Homo sapiens
Experimental: as §4, §3

B16 (skin melanoma) = assay: Cytotoxicity on B16 cells; type: cell-based, murine; conditions: Mus musculus
Experimental: as §4, §3

[7] = tested on: resistant Colo 320 colon adenocarcinoma cells expressing the ABCB1 transporter; assay: Checkerboard combination assay with doxorubicin; type: cell-based, human; conditions: starting conc. 10 µM
Experimental: A checkerboard microplate method was applied to study the effect of drug interactions between the selenocompounds and the chemotherapeutic drug doxorubicin on resistant Colo 320 colon adenocarcinoma cells expressing the ABCB1 transporter. Results were expressed in terms of the combination index (CI) values at 50% growth inhibition (ED50), which were determined by using CompuSyn software to plot 4 or 5 data points for each ratio.
To perform the experiment, the dilutions of doxorubicin were made in a horizontal direction in 100 µL, and the dilutions of the Se-compounds were made vertically in the microtiter plate in a volume of 50 µL. The cells were re-suspended in the culture medium and distributed into each well in 50 µL portions containing 6000 cells. The plates were incubated for 72 h at 37 °C in a CO2 incubator. The cell growth rate was determined after MTT staining. At the end of the incubation period, 20 μL of MTT solution was added to each well. After incubation at 37 °C for 4 h, 100 μL of SDS was added to each well and the plates were further incubated at 37 °C overnight. The optical density (OD) was measured at 540/630 nm with the Multiscan EX ELISA reader.

HaCaT cell line = assay: Toxicity on HaCaT cells (IC10 used as dose); type: cell-based; conditions: Homo sapiens, concentration inhibiting 10% of the population, highest non-toxic concentration, read-out: Dose IC10
Experimental: as §4, with “solution. […]” for “solution.”
Wound healing activity of selenoesters was evaluated as the ability of the cells to migrate and close the gap created on the monolayer of human keratinocytes (HaCaT cell line). The tested substances were applied in the highest possible non-toxic concentration (IC10, concentration inhibiting 10% of the population). In general, ketone-selenoesters were more toxic (except K4 and K1) than cyano-selenoesters (except N4); therefore, they were applied at lower doses (0.17–0.30 µM) when compared to cyanoselenoesters (0.36–0.64 µM). Compounds K1, K4, and N4 were applied at a concentration of 0.30, 0.46, and 0.20 µM, respectively. As could be seen in Table 8, all ketone-selenoesters stimulated wound healing more effectively in comparison to both untreated control (p < 0.0000005) and allantoin (p < 0.00005). […] Only samples N1, N2, N4, and N7 closed effectively the damaged wound in 24 h, with the gap closure around 70%.

[8] = tested on: HepG2 (hepatocellular carcinoma); assay: Cytotoxicity on HepG2 cells; type: cell-based, human; conditions: ratio IC50 non-tumour cells / IC50 cancer cells
[9] = tested on: HeLa (cervical adenocarcinoma); assay: Cytotoxicity on HeLa cells; type: cell-based, human; conditions: ratio IC50 non-tumour cells / IC50 cancer cells
[10] = target: ABCB1 (P-glycoprotein) in Colo 320 colonic adenocarcinoma cells (Homo sapiens, UniProt P08183); assay: ABCB1 inhibition, rhodamine 123 accumulation by flow cytometry; conditions: 0.2 µM
Experimental: The inhibition of the ABCB1 multidrug efflux pump ABCB1 by the tested compounds was evaluated using flow cytometry, measuring the retention of rhodamine 123 by ABCB1 (P-glycoprotein) in Colo 320 colonic adenocarcinoma cells. Briefly, the cell number of colonic adenocarcinoma cells were adjusted to 2 × 10^6 cells/mL, re-suspended in serum-free RPMI-1640 medium in the case of colonic adenocarcinoma cells, and distributed in 0.5 mL aliquots into Eppendorf centrifuge tubes. The tested compounds were added at different concentrations (0.2 and 2 µM; from 1 and 10 mM stock solutions, respectively), and the samples were incubated for 10 min at room temperature. Tariquidar was applied as the positive control (0.2 µM final concentration), and DMSO was used as the solvent control (at 2 v/v%). Next, 10 µL (5.2 µM final concentration) of the fluorochrome rhodamine 123 (Sigma, St. Louis, MO, USA) was added to the samples and the cells were incubated for 20 min at 37 °C. After the incubation period, the cells were washed twice and re-suspended in 0.5 mL PBS for analysis. The fluorescence of the gated cell population was measured with a Partec CyFlow® flow cytometer (Partec, Münster, Germany). The percentage of the mean fluorescence intensity was calculated for the treated MDR cells as compared with the untreated cells. The results were obtained from a representative flow cytometry experiment in which at least 20,000 individual cells of the overall population were evaluated for the rhodamine 123 retained inside the cells. The fluorescence activity ratio (FAR) was calculated based on the following equation, which relates the measured fluorescence values: FAR=Colo320treated / Colo320control/Colo205treated / Colo205control
The parameters evaluated from flow cytometry experiments were: Forward Scatter Count (FSC, provides information about cell size); Side Scatter Count (SSC, proportional to cell granularity or internal complexity); FL-1 (Mean fluorescence of the cells), and Fluorescence Activity Ratio (FAR), which was calculated by the equation given above.

Sequence of ABCB1 (P-glycoprotein) in Colo 320 colonic adenocarcinoma cells (P08183 whole entry): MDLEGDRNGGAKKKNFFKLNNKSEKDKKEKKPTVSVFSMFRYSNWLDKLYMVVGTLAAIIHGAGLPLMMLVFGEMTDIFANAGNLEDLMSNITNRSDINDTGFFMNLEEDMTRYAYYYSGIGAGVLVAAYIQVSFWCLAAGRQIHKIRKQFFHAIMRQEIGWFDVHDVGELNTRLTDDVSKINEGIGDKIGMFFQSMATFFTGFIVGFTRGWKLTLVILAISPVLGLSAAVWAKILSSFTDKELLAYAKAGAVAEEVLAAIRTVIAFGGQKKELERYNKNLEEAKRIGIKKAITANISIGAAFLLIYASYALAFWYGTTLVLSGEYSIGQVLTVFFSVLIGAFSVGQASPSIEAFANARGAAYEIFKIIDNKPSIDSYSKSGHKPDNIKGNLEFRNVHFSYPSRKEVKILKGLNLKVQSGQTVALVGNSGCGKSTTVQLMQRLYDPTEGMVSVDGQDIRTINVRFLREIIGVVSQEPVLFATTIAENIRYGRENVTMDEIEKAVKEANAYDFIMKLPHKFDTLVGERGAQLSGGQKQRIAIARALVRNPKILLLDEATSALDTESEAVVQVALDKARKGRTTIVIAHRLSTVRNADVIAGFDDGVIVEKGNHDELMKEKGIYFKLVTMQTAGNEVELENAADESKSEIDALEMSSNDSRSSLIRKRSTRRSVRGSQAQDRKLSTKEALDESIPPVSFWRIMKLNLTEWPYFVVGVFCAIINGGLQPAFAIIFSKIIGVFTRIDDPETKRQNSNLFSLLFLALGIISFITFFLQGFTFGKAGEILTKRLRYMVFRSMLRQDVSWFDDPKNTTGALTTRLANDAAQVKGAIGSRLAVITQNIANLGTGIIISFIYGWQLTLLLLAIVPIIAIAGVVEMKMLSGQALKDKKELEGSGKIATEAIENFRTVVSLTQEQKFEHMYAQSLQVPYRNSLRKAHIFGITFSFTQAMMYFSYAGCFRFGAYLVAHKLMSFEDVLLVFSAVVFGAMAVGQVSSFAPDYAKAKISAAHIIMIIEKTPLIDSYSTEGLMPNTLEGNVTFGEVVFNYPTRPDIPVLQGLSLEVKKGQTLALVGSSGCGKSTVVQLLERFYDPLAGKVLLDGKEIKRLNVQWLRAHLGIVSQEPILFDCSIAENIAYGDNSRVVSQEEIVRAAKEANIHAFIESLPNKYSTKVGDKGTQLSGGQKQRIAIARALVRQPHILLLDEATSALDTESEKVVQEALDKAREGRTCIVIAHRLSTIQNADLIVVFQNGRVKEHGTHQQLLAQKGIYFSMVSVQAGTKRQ

COc1cccc2c1C(=O)c1c(O)c3c(c(O)c1C2=O)C[C@@](O)(C(=O)CO)C[C@@H]3O[C@H]1C[C@H](N)[C@H](O)[C@H](C)O1 [Dox., doxorubicin, reference compound]
IC50 [1]: 3.46 µM | SI MRC-5/Colo 205 [1]: 0.79 | IC50 [2]: 7.61 µM | SI MRC-5/Colo 320 [2]: 0.36 | IC50 at 24 h ([3]; MRC-5 embryonal lung fibroblast cells, 24 h, MTT, read-out: MRC-5 (IC50 µM) Mean): 2.73 µM

c1ccc2c(c1)Nc1c(ccc3ccccc13)S2 [M627, 12H-benzo(α)phenothiazine, reference compound]
Cell Death (%) Treated Sample-Untreated Sample ([4]; positive control): 0.00% | Early Apoptosis (%) Treated Sample-Untreated Sample ([4]; positive control): 13.3% | Late Apoptosis (%) Treated Sample-Untreated Sample ([4]; positive control): 36.1% | Total Apoptotic Events (Early + Late, %) ([4]; positive control): 49.4% | Apoptosis Quotient (%) ([4]; reference): 100%

N#CC[Se]C(=O)c1cccc(C(F)(F)F)c1 [N5, Se-(Cyanomethyl) 3-(Trifluoromethyl)benzoselenoate]
IC50 [1]: 2.1 µM | SI MRC-5/Colo 205 [1]: >6 * | IC50 [2]: 5.22 µM | SI MRC-5/Colo 320 [2]: >6 * | IC50 at 24 h [3]: > 100 µM | IC50 [5]: 9.8 µM | IC50 [6]: 2.5 µM | IC50 (B16 (skin melanoma)): 1.4 µM | Type of Interaction ([7]; ratio 1.2:1): Strong antagonism | Type of Interaction ([7]; ratio 2.4:1): Strong antagonism | Type of Interaction ([7]; ratio 4.8:1): Slight antagonism | Type of Interaction ([7]; ratio 9.6:1): Additive effect | Type of Interaction ([7]; ratio 19.2:1): Slight antagonism | Type of Interaction ([7]; ratio 38.4:1): Moderate antagonism | IC10 (HaCaT cell line): 0.6 µM | SI MRC-5/HepG2 [8]: >6 * | SI MRC-5/HeLa [9]: >6 *

COc1cc2c(cc1OC)CN(CCc1ccc(NC(=O)c3cc(OC)c(OC)cc3NC(=O)c3cnc4ccccc4c3)cc1)CC2 [Tariquidar, reference compound]
FSC (Forward Scatter Count) [10]: 1957 | SSC (Side Scatter Count) [10]: 1074 | FAR (fluorescence activity ratio) ([10]; rhodamine 123, FAR above 2 considered effective): 28.04
